This note sets out measurements from patent publication US20240270762A1, “PENICILLIN-BINDING PROTEIN INHIBITORS” (priority 2021, published 2024).

Assay [1] has as its system N. gonorrhoeae ATCC 49226. Briefly: Liquid broth MIC in Fastidious broth. As to conditions: Neisseria gonorrhoeae.
Another assay relates to A. baumannii CDC-0045. The experiment in a line: microbe, parasite or virus in culture. Format: cell-based. As to conditions: Acinetobacter baumannii, CDC0045, read-out: MIC, A. baumannii CDC-0045.
A further assay concerns P. aeruginosa CDC-0054. Briefly: microbe, parasite or virus in culture. Format: cell-based. To be noted: Pseudomonas aeruginosa, CDC0054, read-out: Minimum inhibitory concentration, P. aeruginosa CDC-0054.
In assay [2] the target is T1, PBP1a from Acinetobacter baumannii (ATCC 19606) (Acinetobacter baumannii, UniProt A0ABX6CK30).
T1 sequence (A0ABX6CK30 1-851): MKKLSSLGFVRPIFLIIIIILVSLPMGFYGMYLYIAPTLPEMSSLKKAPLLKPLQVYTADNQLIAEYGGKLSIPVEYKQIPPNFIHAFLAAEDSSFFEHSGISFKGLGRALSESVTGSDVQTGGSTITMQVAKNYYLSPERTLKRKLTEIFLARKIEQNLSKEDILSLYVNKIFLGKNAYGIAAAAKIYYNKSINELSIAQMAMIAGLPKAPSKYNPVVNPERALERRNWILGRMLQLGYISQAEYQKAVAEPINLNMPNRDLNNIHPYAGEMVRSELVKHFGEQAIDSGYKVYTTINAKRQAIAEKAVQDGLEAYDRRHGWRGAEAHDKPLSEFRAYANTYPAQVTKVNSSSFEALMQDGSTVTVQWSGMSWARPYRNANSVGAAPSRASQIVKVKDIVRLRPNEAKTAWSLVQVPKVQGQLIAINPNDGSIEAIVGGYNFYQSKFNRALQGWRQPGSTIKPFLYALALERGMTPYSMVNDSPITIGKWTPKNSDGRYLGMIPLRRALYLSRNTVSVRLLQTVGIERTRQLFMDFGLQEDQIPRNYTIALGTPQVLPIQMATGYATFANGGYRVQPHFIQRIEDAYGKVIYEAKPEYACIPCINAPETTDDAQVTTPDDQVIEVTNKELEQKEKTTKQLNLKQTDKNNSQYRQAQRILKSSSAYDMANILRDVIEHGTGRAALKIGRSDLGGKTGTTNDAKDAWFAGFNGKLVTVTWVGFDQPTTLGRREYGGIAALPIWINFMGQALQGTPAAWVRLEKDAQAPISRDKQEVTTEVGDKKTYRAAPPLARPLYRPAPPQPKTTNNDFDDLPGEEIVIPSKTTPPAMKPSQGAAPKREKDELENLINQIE
The experiment in a line: Bocillin-FL fluorescence polarization competition binding, A. baumannii PBP1a. To be noted: fluorescence polarization competition binding assay using Bocillin-FL; read-out: A. baumannii PBP1a Potency. The method in brief: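 Purified PBP was preincubated with inhibitor (E. coli PBP3 1.5 μM, 30 min; P. aeruginosa PBP3 0.75 μM, A. baumannii PBP3 0.2 μM and PBP1a 1 μM, 15 min), then Bocillin-FL (0.1 μM; 0.05 μM for PBP1a) added and FP read up to 60 min. EC50 = 50% loss of bound probe.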
Background: In fluorescence polarisation assays a small probe gives low polarisation when free and higher when bound to something large.

For the next assay, the system named is A. baumannii ATCC 17978. The experiment in a line: microbe, parasite or virus in culture. To be noted: Acinetobacter baumannii, ATCC17978, read-out: MIC, A. baumannii ATCC 17978. Format: cell-based.
Where [3] appears, read: ATCC49226, read-out: Minimum Inhibitory Concentration (MIC), N. gonorrhoeae ATCC 49226.

Converted amounts (≈) assume the structure as drawn. Where two headings read alike, the source gives them in different places. Some results are limits rather than exact numbers.

For the molecule `O=C(O)c1cccc2c1OB(O)[C@@H](NC(=O)[C@@H](NC(=O)c1cnc3n(c1=O)CCS3)c1ccc(P(=O)(O)O)cc1)C2` (single isomer, unassigned) [Example 196], in assay [1] (setting [3]), the MIC is 16 to 32 µg/mL (≈ 26.7 to 53.3 µM).
Still for that read-out and setting: with `O=C(O)c1cccc2c1OB(O)[C@@H](NC(=O)[C@H](NC(=O)c1cnc3n(c1=O)CCS3)c1ccc(P(=O)(O)O)cc1)C2` (single isomer, unassigned) [Example 197] the figure was 16 to 32 µg/mL (≈ 26.7 to 53.3 µM).
Still for that read-out and setting: with `CCN1CCN(C(=O)NC(C(=O)N[C@H]2Cc3cccc(C(=O)O)c3OB2O)c2ccc(P(=O)(O)O)c(F)c2O)C(=O)C1=O` (stereo partly drawn) [Example 198, (3R)-3-(2-(4-ethyl-2,3-dioxopiperazine-1-carboxamido)-2-(3-fluoro-2-hydroxy-4-phosphonophenyl)acetamido)-2-hydroxy-3,4-dihydro-2H-benzo[e][1,2]oxaborinine-8-carboxylic acid] the figure was < 1 µg/mL.
As to `CN(CCN1CCN(C(=O)N[C@@H](C(=O)N[C@H]2Cc3ccc(F)c(C(=O)O)c3OB2O)c2cc(F)c(O)c(O)c2Cl)C(=O)C1=O)Cc1nccs1` [Example 200, (R)-3-((R)-2-(2-chloro-5-fluoro-3,4-dihydroxyphenyl)-2-(4-(2-(methyl(thiazol-2-ylmethyl)amino)ethyl)-2,3-dioxopiperazine-1-carboxamido)acetamido)-7-fluoro-2-hydroxy-3,4-dihydro-2H-benzo[e][1,2]oxaborinine-8-carboxylic acid], the MIC with A. baumannii CDC-0045 was < 1 µg/mL; in the assay on P. aeruginosa CDC-0054, < 1 µg/mL; in the assay with A. baumannii ATCC 17978, < 1 µg/mL; in assay [1] (setting [3]) it was 4 to 8 µg/mL (≈ 5.43 to 10.9 µM). Further, the IC50 in assay [2] is > 250 µM.
For `CN(CCN1CCN(C(=O)N[C@@H](C(=O)N[C@H]2Cc3ccc(F)c(C(=O)O)c3OB2O)c2cc(F)c(O)c(O)c2Cl)C(=O)C1=O)Cc1cccnc1` [Example 201, (R)-3-((R)-2-(2-chloro-5-fluoro-3,4-dihydroxyphenyl)-2-(4-(2-(methyl(pyridin-3-ylmethyl)amino)ethyl)-2,3-dioxopiperazine-1-carboxamido)acetamido)-7-fluoro-2-hydroxy-3,4-dihydro-2H-benzo[e][1,2]oxaborinine-8-carboxylic acid], the MIC in the assay with A. baumannii CDC-0045 is < 1 µg/mL; in the assay on P. aeruginosa CDC-0054, < 1 µg/mL; in the assay on A. baumannii ATCC 17978, < 1 µg/mL; in assay [1] (setting [3]), 16 to 32 µg/mL (≈ 21.9 to 43.8 µM). The IC50 in assay [2] is > 250 µM.
In the case of `O=C(NCCCN1CCN(C(=O)NC(C(=O)N[C@H]2Cc3ccc(F)c(C(=O)O)c3OB2O)c2cc(F)c(O)c(O)c2Cl)C(=O)C1=O)c1ccccc1` (stereo partly drawn) [Example 202, (3R)-3-(2-(4-(3-benzamidopropyl)-2,3-dioxopiperazine-1-carboxamido)-2-(2-chloro-5-fluoro-3,4-dihydroxyphenyl)acetamido)-7-fluoro-2-hydroxy-3,4-dihydro-2H-benzo[e][1,2]oxaborinine-8-carboxylic acid], the MIC is < 1 µg/mL with A. baumannii CDC-0045, < 1 µg/mL with P. aeruginosa CDC-0054, < 1 µg/mL in the assay with A. baumannii ATCC 17978 and 16 to 32 µg/mL (≈ 21.5 to 43 µM) in assay [1] (setting [3]). Also, in assay [2], the IC50 was > 250 µM.
Regarding `O=C(NCCCN1CCN(C(=O)NC(C(=O)N[C@H]2Cc3ccc(F)c(C(=O)O)c3OB2O)c2cc(F)c(O)c(O)c2Cl)C(=O)C1=O)c1ccc(O)cc1` (stereo partly drawn) [Example 203, (3R)-3-(2-(2-chloro-5-fluoro-3,4-dihydroxyphenyl)-2-(4-(3-(4-hydroxybenzamido)propyl)-2,3-dioxopiperazine-1-carboxamido)acetamido)-7-fluoro-2-hydroxy-3,4-dihydro-2H-benzo[e][1,2]oxaborinine-8-carboxylic acid], the MIC in the assay on A. baumannii CDC-0045 was < 1 µg/mL; in the assay with P. aeruginosa CDC-0054, < 1 µg/mL; in the assay on A. baumannii ATCC 17978, < 1 µg/mL; in assay [1] (setting [3]), 4 to 8 µg/mL (≈ 5.26 to 10.5 µM). Also, the IC50 in assay [2] was > 250 µM.
Consider `O=C(NCCCN1CCN(C(=O)NC(C(=O)N[C@H]2Cc3ccc(F)c(C(=O)O)c3OB2O)c2cc(F)c(O)c(O)c2Cl)C(=O)C1=O)c1cccc(O)c1` (stereo partly drawn) [Example 204, (3R)-3-(2-(2-chloro-5-fluoro-3,4-dihydroxyphenyl)-2-(4-(3-(3-hydroxybenzamido)propyl)-2,3-dioxopiperazine-1-carboxamido)acetamido)-7-fluoro-2-hydroxy-3,4-dihydro-2H-benzo[e][1,2]oxaborinine-8-carboxylic acid], for which the MIC in the assay on A. baumannii CDC-0045 was < 1 µg/mL; in the assay with P. aeruginosa CDC-0054, < 1 µg/mL; in the assay on A. baumannii ATCC 17978 it was < 1 µg/mL; in assay [1] (setting [3]) it was 16 to 32 µg/mL (≈ 21.1 to 42.1 µM).
Take `O=C(NCCCN1CCN(C(=O)NC(C(=O)N[C@H]2Cc3ccc(F)c(C(=O)O)c3OB2O)c2cc(F)c(O)c(O)c2Cl)C(=O)C1=O)c1ccncc1` (stereo partly drawn) [Example 205, (3R)-3-(2-(2-chloro-5-fluoro-3,4-dihydroxyphenyl)-2-(4-(3-(isonicotinamido)propyl)-2,3-dioxopiperazine-1-carboxamido)acetamido)-7-fluoro-2-hydroxy-3,4-dihydro-2H-benzo[e][1,2]oxaborinine-8-carboxylic acid]: the MIC in the assay with A. baumannii CDC-0045 is < 1 µg/mL; with P. aeruginosa CDC-0054, < 1 µg/mL; with A. baumannii ATCC 17978 it was < 1 µg/mL; in assay [1] (setting [3]), 16 to 32 µg/mL (≈ 21.5 to 43 µM). In assay [2], the IC50 is > 250 µM.
With `O=C(NCCCN1CCN(C(=O)NC(C(=O)N[C@H]2Cc3ccc(F)c(C(=O)O)c3OB2O)c2cc(F)c(O)c(O)c2Cl)C(=O)C1=O)Nc1cccc(O)c1` (stereo partly drawn) [Example 206, (3R)-3-(2-(2-chloro-5-fluoro-3,4-dihydroxyphenyl)-2-(4-(3-(3-(3-hydroxyphenyl)ureido)propyl)-2,3-dioxopiperazine-1-carboxamido)acetamido)-7-fluoro-2-hydroxy-3,4-dihydro-2H-benzo[e][1,2]oxaborinine-8-carboxylic acid], the MIC with A. baumannii CDC-0045 is < 1 µg/mL; in the assay on P. aeruginosa CDC-0054, < 1 µg/mL; with A. baumannii ATCC 17978, < 1 µg/mL; in assay [1] (setting [3]), 16 to 32 µg/mL (≈ 20.6 to 41.3 µM). In addition, in assay [2], the IC50 is > 250 µM.
Regarding `CN(CCN1CCN(C(=O)N[C@@H](C(=O)N[C@H]2Cc3ccc(F)c(C(=O)O)c3OB2O)c2cc(F)c(O)c(O)c2Cl)C(=O)C1=O)Cc1cncc(O)c1` [Example 208, (R)-3-((R)-2-(2-chloro-5-fluoro-3,4-dihydroxyphenyl)-2-(4-(2-(((5-hydroxypyridin-3-yl)methyl)(methyl)amino)ethyl)-2,3-dioxopiperazine-1-carboxamido)acetamido)-7-fluoro-2-hydroxy-3,4-dihydro-2H-benzo[e][1,2]oxaborinine-8-carboxylic acid], the MIC in the assay on A. baumannii CDC-0045 was < 1 µg/mL; with P. aeruginosa CDC-0054, 2 to 4 µg/mL (≈ 2.68 to 5.36 µM); in the assay on A. baumannii ATCC 17978, < 1 µg/mL; in assay [1] (setting [3]) it was 4 to 8 µg/mL (≈ 5.36 to 10.7 µM).
In the case of `O=C(CN1CCN(C(=O)NC(C(=O)N[C@H]2Cc3ccc(F)c(C(=O)O)c3OB2O)c2cc(F)c(O)c(O)c2Cl)C(=O)C1=O)NCc1ccc(O)cc1` (stereo partly drawn) [Example 236, (3R)-3-(2-(2-chloro-5-fluoro-3,4-dihydroxyphenyl)-2-(4-(2-((4-hydroxybenzyl)amino)-2-oxoethyl)-2,3-dioxopiperazine-1-carboxamido)acetamido)-7-fluoro-2-hydroxy-3,4-dihydro-2H-benzo[e][1,2]oxaborinine-8-carboxylic acid], the MIC is 8 to 16 µg/mL (≈ 10.7 to 21.5 µM) in the assay with A. baumannii CDC-0045 and < 1 µg/mL in the assay with A. baumannii ATCC 17978. In addition, in assay [2], the IC50 was > 250 µM.
For the molecule `O=C(CN1CCN(C(=O)NC(C(=O)N[C@H]2Cc3ccc(F)c(C(=O)O)c3OB2O)c2cc(F)c(O)c(O)c2Cl)C(=O)C1=O)NCc1ccccc1` (stereo partly shown) [Example 238], the results for the MIC (with P. aeruginosa CDC-0054; in the assay on A. baumannii ATCC 17978; in assay [1] (setting [3])) were 2 to 4 µg/mL (≈ 2.74 to 5.48 µM), < 1 µg/mL and 16 to 32 µg/mL (≈ 21.9 to 43.8 µM), respectively. For the same molecule, in assay [2], the IC50 was > 250 µM.
For `O=C(NCCN1CCN(C(=O)NC(C(=O)N[C@H]2Cc3ccc(F)c(C(=O)O)c3OB2O)c2cc(F)c(O)c(O)c2Cl)C1=O)Nc1cccc(O)c1` (stereo partly drawn) [Example 249, (3R)-3-(2-(2-chloro-5-fluoro-3,4-dihydroxyphenyl)-2-(3-(2-(3-(3-hydroxyphenyl)ureido)ethyl)-2-oxoimidazolidine-1-carboxamido)acetamido)-7-fluoro-2-hydroxy-3,4-dihydro-2H-benzo[e][1,2]oxaborinine-8-carboxylic acid], the MIC in the assay with A. baumannii CDC-0045 was < 1 µg/mL; in the assay on P. aeruginosa CDC-0054, 2 to 4 µg/mL (≈ 2.73 to 5.46 µM); with A. baumannii ATCC 17978, < 1 µg/mL; in assay [1] (ATCC49226, read-out: Minimum Inhibitory Concentration, ATCC 49226), 16 to 32 µg/mL (≈ 21.8 to 43.7 µM).
